Patent publication US8895726B2, “Compounds derived from indole and pharmaceutical compositions containing them” (The Institut Curie, priority 2007, dated 2014)

Biological target: T1, interaction between hUPF1 and hSMG5 (Homo sapiens, UniProt Q92900+Q9UPR3)
T1 construct: a complementary analysis of the immunoprecipitates of the hUPF1 protein from HeLa cells; endogenous in cells; host or cells: HeLa
T1 sequence (Q92900 1-1129): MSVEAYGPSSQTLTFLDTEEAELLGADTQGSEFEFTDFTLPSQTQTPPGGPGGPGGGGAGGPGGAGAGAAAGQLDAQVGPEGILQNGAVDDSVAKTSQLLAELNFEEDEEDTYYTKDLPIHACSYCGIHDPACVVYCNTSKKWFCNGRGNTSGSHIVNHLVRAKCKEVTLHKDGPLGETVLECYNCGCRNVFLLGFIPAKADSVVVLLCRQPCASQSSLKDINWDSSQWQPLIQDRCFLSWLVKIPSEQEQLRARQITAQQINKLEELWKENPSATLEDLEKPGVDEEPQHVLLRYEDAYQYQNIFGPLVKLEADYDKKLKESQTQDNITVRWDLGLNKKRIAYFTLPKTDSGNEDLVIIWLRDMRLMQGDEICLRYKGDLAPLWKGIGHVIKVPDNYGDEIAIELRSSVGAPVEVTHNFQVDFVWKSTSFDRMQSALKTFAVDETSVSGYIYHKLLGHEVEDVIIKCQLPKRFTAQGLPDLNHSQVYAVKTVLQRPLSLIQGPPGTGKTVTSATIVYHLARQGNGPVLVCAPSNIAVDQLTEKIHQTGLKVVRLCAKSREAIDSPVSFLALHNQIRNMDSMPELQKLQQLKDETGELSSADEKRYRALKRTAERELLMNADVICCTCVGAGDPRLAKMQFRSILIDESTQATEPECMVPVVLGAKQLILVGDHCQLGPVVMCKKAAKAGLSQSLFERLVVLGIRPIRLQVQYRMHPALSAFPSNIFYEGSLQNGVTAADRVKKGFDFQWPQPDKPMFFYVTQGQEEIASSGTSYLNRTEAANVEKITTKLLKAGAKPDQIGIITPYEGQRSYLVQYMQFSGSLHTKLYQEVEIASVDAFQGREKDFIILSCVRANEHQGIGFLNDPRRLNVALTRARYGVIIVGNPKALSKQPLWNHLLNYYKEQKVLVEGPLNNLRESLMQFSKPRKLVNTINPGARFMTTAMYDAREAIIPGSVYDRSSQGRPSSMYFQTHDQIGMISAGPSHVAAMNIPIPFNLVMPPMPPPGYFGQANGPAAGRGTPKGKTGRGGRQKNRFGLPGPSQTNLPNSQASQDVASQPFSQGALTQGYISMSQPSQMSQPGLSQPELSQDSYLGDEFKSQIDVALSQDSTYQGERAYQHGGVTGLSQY
T1 sequence (Q9UPR3 2-1016 limits assumed): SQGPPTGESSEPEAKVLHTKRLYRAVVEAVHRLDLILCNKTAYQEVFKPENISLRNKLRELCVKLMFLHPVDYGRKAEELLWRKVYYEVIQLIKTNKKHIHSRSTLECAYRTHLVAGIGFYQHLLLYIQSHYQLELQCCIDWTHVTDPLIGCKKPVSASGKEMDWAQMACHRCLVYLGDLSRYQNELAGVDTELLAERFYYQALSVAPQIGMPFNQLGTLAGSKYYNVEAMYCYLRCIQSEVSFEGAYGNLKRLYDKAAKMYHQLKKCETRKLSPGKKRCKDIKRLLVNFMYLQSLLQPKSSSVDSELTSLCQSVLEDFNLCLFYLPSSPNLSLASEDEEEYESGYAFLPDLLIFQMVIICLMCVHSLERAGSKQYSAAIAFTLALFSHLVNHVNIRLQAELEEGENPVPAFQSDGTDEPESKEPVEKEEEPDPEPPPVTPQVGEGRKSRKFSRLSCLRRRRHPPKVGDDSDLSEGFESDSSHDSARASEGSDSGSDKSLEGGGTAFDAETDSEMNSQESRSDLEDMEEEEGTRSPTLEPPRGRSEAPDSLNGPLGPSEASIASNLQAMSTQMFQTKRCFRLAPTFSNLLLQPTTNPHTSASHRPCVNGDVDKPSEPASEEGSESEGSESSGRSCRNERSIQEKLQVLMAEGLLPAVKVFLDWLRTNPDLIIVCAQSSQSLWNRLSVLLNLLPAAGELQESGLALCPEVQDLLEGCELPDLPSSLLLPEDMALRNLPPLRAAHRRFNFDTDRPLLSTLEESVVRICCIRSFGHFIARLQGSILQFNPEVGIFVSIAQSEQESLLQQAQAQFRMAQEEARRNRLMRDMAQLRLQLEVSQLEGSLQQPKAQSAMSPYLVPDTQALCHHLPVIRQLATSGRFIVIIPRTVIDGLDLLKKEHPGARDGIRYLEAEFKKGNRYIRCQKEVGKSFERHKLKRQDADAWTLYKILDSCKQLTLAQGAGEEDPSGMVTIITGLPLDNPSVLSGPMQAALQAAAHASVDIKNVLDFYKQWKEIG
Assay: hUPF1 immunoprecipitation, dephosphorylation complex
Format: cell-based
Details: HeLa cells
Procedure: Immunopurification of hUPF1 and western blot analysis were carried out according to a procedure described earlier (Lejeune and Maquat, 2004) by using an anti-hUPF1 antibody (Ohnishi et al., 2003), The western blot analyses were conducted by using a 1/250 dilution of anti-hUPF1, anti-hSMG5, anti-hSMG6 or anti-hSMG7 rabbit antibodies (Ohnishi et al., 2003), a 1/1000 dilution of anti-hUPF3/3X rabbit antibody (Ishigaki et al., 2001) or of anti-TUBILIN mouse antibody (SIGMA-ALDRICH). The proteins were detected by using the <<SuperSignal West Pico Chemiluminescent Substrate>> or <<SuperSignal West Femto Maximum Sensitivity Substrate>> (PIERCE).
In order to determine which of both mechanisms would be induced by the identified compounds, a complementary analysis of the immunoprecipitates of the hUPF1 protein from HeLa cells, either incubated or not in the presence of the compound 70, was carried out.
In a first phase, the analysis of hUPF1 with its dephosphorylation complex was carried out. The results have shown that hSMG5, hSMG6 and hSMG7 may be detected in cells treated with DMSO but that hSMG5 was undetectable on the other hand when the HeLa cells had been incubated beforehand with compound 70.

## Cc1c2ccnc(Cl)c2c(C)c2c1[nH]c1ncccc12 [Compound 70, 6-Chloro-5,1-0dimethyl-11H-pyrido[3′,2′:4,5]-pyrrolo[3,2-g]isoquinoline]
  hSMG5 in hUPF1 immunoprecipitates: undetectable
